Patent publication US9302999B2, “Substituted triazoles as herbicides” (E. I. DU PONT DE NEMOURS AND COMPANY, priority 2012, dated 2016)

What was measured:
Type in all cases: in vivo
[1] = system: ryegrass, Italian (Italian ryegrass, Lolium multiflorum); experiment: Test C pre-/postemergence: ryegrass, Italian
How it was run: (§1)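 Preemergence on seeds in loam/sand, postemergence on 2–18 cm (1–4-leaf) plants in peat-based medium; compounds in non-phytotoxic solvent with surfactant. After 13–15 days in greenhouse, visual rating versus controls, 0 (no effect) to 100 (complete control).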

[2] = system: galium (catchweed bedstraw, Galium aparine); experiment: Test C pre-/postemergence: galium
How it was run: as §1

[3] = system: wild oat (Avena fatua); experiment: Test C pre-/postemergence: wild oat
How it was run: as §1

[4] = system: large crabgrass (Digitaria sanguinalis); experiment: Test C pre-/postemergence: large crabgrass
How it was run: as §1

[5] = system: velvetleaf (Abutilon theophrasti); experiment: Test C pre-/postemergence: velvetleaf
How it was run: as §1

[6] = system: johnsongrass (Sorghum halepense); experiment: Test C pre-/postemergence: johnsongrass
How it was run: as §1

[7] = system: corn (Zea mays); experiment: Test C pre-/postemergence: corn
How it was run: as §1

[8] = system: ducksalad (Heteranthera limosa); experiment: Test B flooded paddy: ducksalad; details: Flood; 250 g ai/ha; applied to paddy water at 2-leaf stage; visually evaluated after 13 to 15 days
How it was run: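 Plants were grown to the 2-leaf stage, then pots were flooded to 3 cm above the soil and compounds were applied directly into the paddy water. Water depth was held for the whole test; after 13 to 15 days in a greenhouse, injury was visually rated against untreated controls (0 = no effect, 100 = complete control).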

[9] = system: kochia (Kochia scoparia); experiment: Test C pre-/postemergence: kochia
How it was run: as §1

[10] = system: morningglory (Ipomoea coccinea); experiment: Test C pre-/postemergence: morningglory
How it was run: as §1

[11] = system: foxtail, giant (giant foxtail, Setaria faberii); experiment: Test C pre-/postemergence: foxtail, giant
How it was run: as §1

[12] = Postemergence, 31 g ai/ha, scale 0 to 100 (0 no effect, 100 complete control)
[13] = Postemergence, 62 g ai/ha, scale 0 to 100 (0 no effect, 100 complete control)
[14] = Postemergence, 125 g ai/ha, scale 0 to 100, 0 no effect, 100 complete control
[15] = Postemergence, 250 g ai/ha, scale 0 to 100 (0 no effect, 100 complete control)
[16] = Preemergence, 31 g ai/ha, scale 0 (no effect) to 100 (complete control)
[17] = Preemergence, 62 g ai/ha, scale 0 to 100, 0 no effect, 100 complete control
[18] = Preemergence, 125 g ai/ha, scale 0 to 100, 0 no effect, 100 complete control
[19] = Preemergence, 250 g ai/ha, scale 0 to 100, 0 no effect, 100 complete control
[20] = Postemergence, 250 g ai/ha, scale 0 to 100

## CCOc1nn(-c2ccc(F)cc2)nc1Cc1ccnc(C(F)(F)F)c1 [Compound 196, 4-[[5-ethoxy-2-(4-fluorophenyl)-2H-1,2,3-triazol-4-yl]methyl]-2-(trifluoromethyl)pyridine]
[1]; [12]
  Plant response rating, Ryegrass, Italian: 35
[1]; [13]
  Plant response rating, Ryegrass, Italian: 60
[1]; [14]
  Plant response rating, Ryegrass, Italian: 85
[1]; [15]
  Plant response rating, Ryegrass, Italian: 85
[1]; [16]
  Plant response rating, Ryegrass, Italian: 80
[1]; [17]
  Plant response rating, Ryegrass, Italian: 90
[1]; [18]
  Plant response rating, Ryegrass, Italian: 90
[1]; [19]
  Plant response rating, Ryegrass, Italian: 90
[2]; [12]
  Plant response rating, Galium: 80
[2]; [13]
  Plant response rating, Galium: 85
[2]; [14]
  Plant response rating, Galium: 90
[2]; [15]
  Plant response rating, Galium: 95
[2]; [16]
  Plant response rating, Galium: 85
[2]; [17]
  Plant response rating, Galium: 95
[2]; [18]
  Plant response rating, Galium: 98
[2]; [19]
  Plant response rating, Galium: 100
[3]; [12]
  Plant response rating, Oat, Wild: 55
[3]; [13]
  Plant response rating, Oat, Wild: 85
[3]; [14]
  Plant response rating, Oat, Wild: 85
[3]; [15]
  Plant response rating, Oat, Wild: 90
[3]; [16]
  Plant response rating, Oat, Wild: 80
[3]; [17]
  Plant response rating, Oat, Wild: 90
[3]; [18]
  Plant response rating, Oat, Wild: 90
[3]; [19]
  Plant response rating, Oat, Wild: 90
[4]; [12]
  Plant response rating, Crabgrass, Large: 80
[4]; [13]
  Plant response rating, Crabgrass, Large: 85
[4]; [14]
  Plant response rating, Crabgrass, Large: 85
[4]; [20]
  Plant response rating, Crabgrass, Large: 95
[4]; [16]
  Plant response rating, Crabgrass, Large: 100
[4]; [17]
  Plant response rating, Crabgrass, Large: 100
[4]; [18]
  Plant response rating, Crabgrass, Large: 100
[4]; [19]
  Plant response rating, Crabgrass, Large: 100
[5]; [12]
  Plant response rating, Velvetleaf: 55
[5]; [13]
  Plant response rating, Velvetleaf: 65
[5]; [14]
  Plant response rating, Velvetleaf: 75
[5]; [15]
  Plant response rating, Velvetleaf: 80
[5]; [16]
  Plant response rating, Velvetleaf: 60
[5]; [17]
  Plant response rating, Velvetleaf: 70
[5]; [18]
  Plant response rating, Velvetleaf: 80
[5]; [19]
  Plant response rating, Velvetleaf: 100
[6]; [12]
  Plant response rating, Johnsongrass: 80
[6]; [13]
  Plant response rating, Johnsongrass: 90
[6]; [14]
  Plant response rating, Johnsongrass: 90
[6]; [15]
  Plant response rating, Johnsongrass: 95
[6]; [16]
  Plant response rating, Johnsongrass: 98
[6]; [17]
  Plant response rating, Johnsongrass: 100
[6]; [19]
  Plant response rating, Johnsongrass: 100
[7]; [12]
  Plant response rating, Corn: 60
[7]; [13]
  Plant response rating, Corn: 60
[7]; [14]
  Plant response rating, Corn: 65
[7]; [20]
  Plant response rating, Corn: 65
[7]; [16]
  Plant response rating, Corn: 25
[7]; [17]
  Plant response rating, Corn: 35
[7]; [18]
  Plant response rating, Corn: 45
[7]; [19]
  Plant response rating, Corn: 50
[8]
  Plant response rating, Ducksalad (0 to 100 scale, 0 is no effect, 100 is complete control): 100
[9]; [12]
  Plant response rating, Kochia: 85
[9]; [13]
  Plant response rating, Kochia: 90
[9]; [14]
  Plant response rating, Kochia: 90
[9]; [15]
  Plant response rating, Kochia: 90
[9]; [16]
  Plant response rating, Kochia: 90
[9]; [17]
  Plant response rating, Kochia: 98
[9]; [18]
  Plant response rating, Kochia: 98
[9]; [19]
  Plant response rating, Kochia: 98
[10]; [12]
  Plant response rating, Morningglory: 75
[10]; [13]
  Plant response rating, Morningglory: 75
[10]; [14]
  Plant response rating, Morningglory: 75
[10]; [15]
  Plant response rating, Morningglory: 75
[10]; [16]
  Plant response rating, Morningglory: 40
[10]; [17]
  Plant response rating, Morningglory: 85
[10]; [18]
  Plant response rating, Morningglory: 100
[10]; [19]
  Plant response rating, Morningglory: 100
[11]; [12]
  Plant response rating, Foxtail, Giant: 85
[11]; [13]
  Plant response rating, Foxtail, Giant: 85
[11]; [14]
  Plant response rating, Foxtail, Giant: 90
[11]; [20]
  Plant response rating, Foxtail, Giant: 90
[11]; [16]
  Plant response rating, Foxtail, Giant: 100
[11]; [17]
  Plant response rating, Foxtail, Giant: 100
[11]; [18]
  Plant response rating, Foxtail, Giant: 100
[11]; [19]
  Plant response rating, Foxtail, Giant: 100
